Assay results as given in the supplement of paper PMC10307832.

Key:
Assay in all cases: relative viability (nuclei count vs DMSO), 5 days (fraction); higher = more cells survive
[1] = compound: C[C@]12O[C@H](C[C@]1(O)CO)n1c3ccccc3c3c4c(c5c6ccccc6n2c5c31)CNC4=O [Lestaurtinib] + Cc1cc(Nc2cc(N3CCN(C)CC3)nc(Sc3ccc(NC(=O)C4CC4)cc3)n2)n[nH]1 [Tozasertib] (partner 0.1 µM)
Outline: (§1)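 One day after seeding in 1536-well plates, lung cancer cell lines were dosed by pin tool. Dosing was either single-drug or a fixed anchor-drug dose plus five library-drug doses (not always all listed) in √10 steps. After 5 days, nuclei were stained in one fix-and-stain step and counted on 4× images, and relative viability is the nuclei count of treated wells over that of vehicle wells, given as the median of duplicate plates.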

[2] = compound: C1=CC(=CC=C1C2=CC(=C(S2)NC(=O)N)C(=O)N)F [TPCA-1] + O=C(CCCCCCC(=O)Nc1ccccc1)NO [Vorinostat] (partner 1 µM)
Outline: as §1

[3] = compound: C1=CC(=CC=C1C2=CC(=C(S2)NC(=O)N)C(=O)N)F [TPCA-1] + Cc1nc(NC(=O)N2CCC[C@H]2C(N)=O)sc1-c1ccnc(C(C)(C)C(F)(F)F)c1 [Alpelisib] (partner 2 µM)
Outline: as §1

[4] = compound: C[C@]12O[C@H](C[C@]1(O)CO)n1c3ccccc3c3c4c(c5c6ccccc6n2c5c31)CNC4=O [Lestaurtinib] + Cc1nc(Nc2ncc(C(=O)Nc3c(C)cccc3Cl)s2)cc(N2CCN(CCO)CC2)n1 [Dasatinib] (partner 0.075 µM)
Outline: as §1

Row | Cell Line | relative viability ([1]; first compound 0.005 µM) | relative viability ([1]; first compound 0.01581 µM) | relative viability ([1]; first compound 0.05 µM) | relative viability ([1]; first compound 0.1581 µM) | relative viability ([1]; first compound 0.5 µM) | relative viability ([2]; first compound 0.04 µM) | relative viability ([2]; first compound 0.1265 µM) | relative viability ([2]; first compound 0.4 µM) | relative viability ([2]; first compound 1.265 µM) | relative viability ([2]; first compound 4 µM) | relative viability ([3]; first compound 0.04 µM) | relative viability ([3]; first compound 0.1265 µM) | relative viability ([3]; first compound 0.4 µM) | relative viability ([3]; first compound 1.265 µM) | relative viability ([3]; first compound 4 µM) | relative viability ([4]; first compound 0.005 µM) | relative viability ([4]; first compound 0.01581 µM) | relative viability ([4]; first compound 0.05 µM) | relative viability ([4]; first compound 0.1581 µM) | relative viability ([4]; first compound 0.5 µM)
1 | NCI-H838 | 0.275 | 0.238 | 0.275 | 0.2 | 0.171 | 0.752 | 0.64 | 0.676 | 0.648 | 0.363 | 0.981 | 0.882 | 0.957 | 0.857 | 0.716 | 0.281 | 0.296 | 0.264 | 0.286 | 0.216
2 | A549 |  |  |  |  |  |  |  |  |  |  | 0.891 | 0.824 | 0.911 | 0.736 | 0.296 |  |  |  |  | 
3 | NCI-H2342 | 0.528 | 0.502 | 0.538 | 0.418 | 0.418 | 0.77 | 0.699 | 0.681 | 0.683 | 0.663 |  |  |  |  |  | 0.328 | 0.314 | 0.264 | 0.313 | 0.259
4 | NCI-H1623 | 0.42 | 0.722 | 0.415 | 0.418 | 0.424 |  |  |  |  |  |  |  |  |  |  | 0.493 | 0.576 | 0.584 | 0.513 | 0.497
5 | SK-LU-1 | 0.288 | 0.349 | 0.267 | 0.293 | 0.204 | 0.872 | 0.672 | 0.774 | 0.577 | 0.449 | 1.16 | 0.805 | 1 | 0.605 | 0.452 | 0.155 | 0.168 | 0.146 | 0.161 | 0.126
6 | NCI-H2085 | 0.828 | 0.83 | 0.75 | 0.882 | 0.56 |  | 0.803 | 0.803 | 0.781 | 0.514 | 0.935 | 0.903 | 1 | 0.939 | 0.933 | 0.236 | 0.265 | 0.3 | 0.335 | 0.496
7 | NCI-H460 | 0.519 | 0.478 | 0.524 | 0.986 | 0.303 | 0.878 | 0.686 |  | 0.682 | 0.563 | 0.638 | 0.464 | 0.518 | 0.373 | 0.105 | 0.505 | 0.583 | 0.505 | 0.388 | 0.247
8 | Calu-6 |  |  |  |  |  |  |  |  |  |  | 0.982 | 0.988 | 1.04 | 0.85 | 0.539 |  |  |  |  | 
9 | RERF-LC-KJ | 0.489 | 0.592 | 0.44 | 0.433 | 0.284 | 0.76 | 0.688 | 0.664 | 0.671 | 0.46 | 0.974 | 0.774 | 0.773 | 0.733 | 0.699 | 0.902 | 0.908 | 0.526 | 0.648 | 0.316
10 | LCLC-103H | 0.526 | 0.595 | 0.384 | 0.424 | 0.209 | 0.839 | 0.764 | 0.818 | 0.525 | 0.363 | 1.06 | 0.901 | 0.992 | 1 | 1.03 | 0.474 | 0.464 | 0.405 | 0.325 | 0.224
11 | NCI-H1792 |  |  |  |  |  |  |  |  |  |  | 0.733 | 0.714 | 0.646 | 0.675 | 0.389 | 1.04 | 1.33 | 0.65 | 0.835 | 0.616
12 | NCI-H1563 |  |  |  |  |  |  |  |  |  |  | 0.976 | 0.932 | 0.897 | 0.993 | 0.911 | 0.487 | 0.447 | 0.499 | 0.409 | 0.362
13 | NCI-H522 | 0.571 | 0.536 | 0.627 | 0.528 | 0.496 | 1.03 | 0.819 | 1 | 0.842 | 0.987 |  |  |  |  |  | 0.798 | 0.807 | 0.934 | 0.821 | 0.493
14 | HCC-44 | 0.882 | 1.08 | 0.996 | 1.48 | 0.354 | 1.09 | 1.07 | 0.95 | 1.1 | 0.85 | 0.876 | 0.765 | 0.838 | 0.703 | 0.66 |  |  |  |  | 
15 | NCI-H1299 |  |  |  |  |  |  |  |  |  |  | 1.11 | 1.09 | 1.05 | 1.04 | 1.1 |  |  |  |  | 
16 | ChaGo-K-1 | 0.221 | 0.254 | 0.243 | 0.231 | 0.215 | 0.781 | 0.694 | 0.796 | 0.665 | 0.295 |  |  |  |  |  | 0.654 | 0.601 | 0.552 | 0.547 | 0.292
17 | NCI-H1648 | 0.377 | 0.649 | 0.391 | 0.487 | 0.49 | 0.4 | 0.486 | 0.528 | 0.704 | 0.631 |  |  |  |  |  |  |  |  |  | 
18 | EBC-1 |  |  |  |  |  |  |  |  |  |  | 0.843 | 0.77 | 0.892 | 0.933 | 0.626 |  |  |  |  | 
19 | IA-LM |  |  |  |  |  | 1.02 | 0.942 | 0.999 |  | 0.699 | 0.912 | 0.619 | 0.729 | 0.892 | 0.677 |  |  |  |  | 
20 | NCI-H1703 |  |  |  |  |  |  |  |  |  |  | 0.336 | 0.3 | 0.304 | 0.233 | 0.207 |  |  |  |  | 
